Assays:
MV4-11 cells [1] = test: Apoptosis determination via Annexin V and PI staining; format: cell-based, human
Protocol: Camptothecin at a concentration of 0.05 uM was used as a positive control. After incubation, the cells were collected and counted with a hemocytometer, and 1×10^5 cells were washed twice with PBS. APC-Annexin V (Becton Dickinson, Pharmingen, Franklin Lakes, NJ, USA) was dissolved to the concentration of […] in a binding buffer (10 mM HEPES/NaOH, pH 7.4; 150 mM NaCl; 5 mM KCl; 1 mM MgCl2; and 1.8 mM CaCl2) (HIIET, Wrocław, Poland), and the cells were suspended in 200 µL of this solution. After 15 min of the incubation in the dark at room temperature, 20 µL of propidium iodide (PI) solution (0.02 mg/mL) was added. Data acquisition was performed by conducting flow cytometry using a BD LSRFortessa cytometer (BD Bioscience, San Jose, CA, USA). The compounds were tested at least three times independently. Results were analyzed using Flowing software 2.5.1 (Turku, Finland). […] Double-negative cells were live cells, PI+/Annexin V+ were late apoptotic cells, PI-/Annexin V+ were early apoptotic cells, and PI+/Annexin V- were necrotic cells.

[2] = tested on: caspase-3/7 in MV4-11 cells; test: Caspase-3/7 activity determination; format: cell-based, human; conditions: MV4-11, positive control
Protocol: The MV4-11 cells were seeded on 48-well plates to the final volume of 1 mL. […] After incubation, the cells were collected and centrifuged (5 min, 4 °C, 250× g). Cells were suspended in 50 µL of ice-cold lysis buffer (50 mM HEPES; 10% (w/v) sucrose; 150 mM NaCl; 2 mM EDTA; 1% (v/v) Triton X-100, pH 7.3; and HIIET, Wrocław, Poland) and incubated for 30 min at 4 °C. After the incubation, 40 µL of each sample was transferred to a white 96-well plate (Corning, USA) containing 160 µL of the reaction buffer (20 mM HEPES; 10% sucrose; 100 mM NaCl; 1 mM EDTA; 10 mM DTT; and 0.02% Trition X-100, pH 7.3) (HIIET, Wrocław, Poland) with a 9 µM AC-DEVD-AMC (Cayman Chemical, Ann Arbor, MI, USA) fluorogenic substrate (λex = 360 nm, λem = 460 nm). The correlation of the fluorescence increase with the caspase-3/7 level was continuously recorded at 37 °C for 120 min using Biotek Synergy H4 (Biokom, Warsaw, Poland). Compounds were tested in duplicates in single experiments, and each experiment was repeated at least three times independently. Results were normalized to the number of cells in each well and are reported as the mean relative caspase-3/7 activity compared to the untreated control sample ± SD.

[3] = tested on: human biphenotypic B myelomonocytic leukemia MV4-11; test: Antiproliferative activity, MTT assay, 72 h; format: cell-based; conditions: for IC50: Homo sapiens, MV4-11, 72 h, MTT, read-out: IC50
Protocol: (§1) The tested compounds were dissolved in DMSO (dimethyl sulfoxide) to a concentration of 10 mg/mL and then were diluted in the culture medium to reach the final concentrations. The cells were plated in 384-well plates at a density of 1 × 10^3 or 2 × 10^3 (MCF-10A) cells per well (Greiner Bio One, Kremsmünster, Austria) and in 96-well plates (MV4-11 cell; Sarstedt, Nümbrecht, Germany) at a density of 5 × 10^3 cells per well. After 24 h of incubation, the tested compounds were added at concentrations in the range of 100–0.03 µg/mL and, after the next 72 h of exposure to tested agents, the cytotoxic effect of all agents was examined using the MTT (MV4-11) or SRB assay, described previously. The values of IC50 (inhibitory concentration 50%) were calculated separately for each experiment (repeated 3–5 times) using the Prolab-3 system which is based on Cheburator 0.4 software. Doxorubicin was applied as a reference drug. The IC50 values in µg/mL were calculated to µM.
This assay was used against MV4-11 leukemia cells and was performed after 72 h of exposure of the tested agents to the cells. For each well, 20 µL of the MTT [3-(4,5-dimethylthiazol-2-yl)-2,5-diphenyl tetrazolium bromide] solution (5 mg/mL, Merck, Darmstadt, Germany) was added. After the incubation time (4 h at 37 °C), 80 µL of the lysing buffer was added to each well (mixture of 225 mL of DMF (dimethylformamide) Avantor, Poland; 67.5 g of SDS, Merck, Darmstadt, Germany; and 275 mL of distilled water). After the next 24 h, the absorbance of the samples was measured at a 570 nm wavelength on a Synergy H4 photometer (BioTek Instruments, Winooski, VT, USA). The absorbance of wells without the cells was the background.

[4] = tested on: human breast cancer MCF-7; test: Antiproliferative activity, SRB assay, 72 h; format: cell-based; conditions: for IC50: Homo sapiens, MCF7, MCF-7, 72 h, SRB, read-out: IC50
Protocol: as §1
(§2) The cytotoxicity assay was performed after the cultured cells were exposed to the tested agents for 72 h using the authomatic Washer dyspenser EL406, BioTek. At the first step, the washer dispenser collected 40 µL of cultured medium from each wells, and then the cells were fixed by gently layering 20 µL per well of cold 25% trichloroacetic acid to each well. The incubation time was 40 min and then the plates were washed with tap water. The cells were stained with 20 µL per well of 0.1% sulforhodamine B (SRB, Merck, Darmstadt, Germany) for 30 min. Unbound sulforhodamine B was removed by washing it with 1% acetic acid. The protein-bound dye was extracted in 30 min using 70 µL per well of 10 mM unbuffered Tris base (Merck, Darmstadt, Germany). The absorbance (at 540 nm) was measured on a Synergy H4 photometer (BioTek Instruments, Winooski, VT, USA). The absorbance of the wells without the cells was the background.

[5] = tested on: human colon cancer HCT116 cells; test: Antiproliferative activity, SRB assay, 72 h; format: cell-based; conditions: for IC50: Homo sapiens, HCT-116, HCT116, 72 h, SRB, read-out: IC50
Protocol: as §1, §2

[6] = tested on: human lung carcinoma A549; test: Antiproliferative activity, SRB assay, 72 h; format: cell-based; conditions: for IC50: Homo sapiens, A549, 72 h, SRB, read-out: IC50; for SI: IC50 MCF-10A / IC50 A549
Protocol: as §1, §2

[7] = tested on: human melanoma Hs294T cells; test: Antiproliferative activity, SRB assay, 72 h; format: cell-based; conditions: for IC50: Homo sapiens, Hs 294T, Hs249T (so in the source), 72 h, SRB, read-out: IC50; for SI: IC50 MCF-10A / IC50 Hs249T (so in the source)
Protocol: as §1, §2

[8] = tested on: human pancreas cancer MiaPaca-2 cells; test: Antiproliferative activity, SRB assay, 72 h; format: cell-based; conditions: for IC50: Homo sapiens, MIA PaCa-2, MiaPaca-1 (so in the source), 72 h, SRB, read-out: IC50; for SI: IC50 MCF-10A / IC50 MiaPaca-1 (so in the source)
Protocol: as §1, §2

[9] = tested on: human prostate adenocarcinoma PC-3; test: Antiproliferative activity, SRB assay, 72 h; format: cell-based; conditions: for IC50: Homo sapiens, PC-3, 72 h, SRB, read-out: IC50
Protocol: as §1, §2

[10] = tested on: human normal epithelial cells from the mammary gland (MCF-10A); test: Cytotoxicity on non-tumorigenic cells, SRB assay, 72 h; format: cell-based; conditions: Homo sapiens, MCF-10A normal cells, SRB, read-out: IC50
Protocol: as §1, §2

MV4-11 cells [11] = test: Cell cycle analysis by flow cytometry (propidium iodide); format: cell-based, human
Protocol: After incubation, the cells were collected and counted with a hemocytometer, and the 5×10^5 cells were washed twice in cold PBS (phosphate-buffered saline) and fixed for 24 h in 70% ethanol at −20 °C. Then, the cells were washed twice in PBS and incubated with 0.5 mL of RNAse (8 μg/mL, Thermo Fisher, Waltham, MA, USA) at 37 °C for 1 h. The cells were stained for 30 min with propidium iodide (final concentration: 50 μg/mL, Merck, Darmstadt, Germany) at 4 °C and the cellular DNA content was analyzed by conducting flow cytometry using a BD LSRFortessa cytometer (BD Bioscience, San Jose, CA, USA). Compounds at each concentration were tested at least three times independently. The obtained results were analyzed using Flowing software 2.5.1 (Cell Imaging Core, Turku Centre for Biotechnology, University of Turku and Åbo Akademi University, Finland).

[12] = tested on: tested cell lines (MV4-11, A549, MCF-7, PC-3, HCT116, MiaPaca-2, Hs294T); test: Antiproliferative activity, range over the tested cell lines; format: cell-based; conditions: Homo sapiens; range across cell lines, 72 h
Protocol: as §1, with “The values of IC50 (inhibitory concentration 50%) were calculated separately for each experiment (repeated 3–5 times) using the Prolab-3 system which is based on Cheburator 0.4 software. Doxorubicin was applied as a reference drug.” left out
This assay was used against MV4-11 leukemia cells and was performed after 72 h of exposure of the tested agents to the cells. […] After the next 24 h, the absorbance of the samples was measured at a 570 nm wavelength on a Synergy H4 photometer (BioTek Instruments, Winooski, VT, USA). The absorbance of wells without the cells was the background.
The cytotoxicity assay was performed after the cultured cells were exposed to the tested agents for 72 h using the authomatic Washer dyspenser EL406, BioTek. […] The absorbance (at 540 nm) was measured on a Synergy H4 photometer (BioTek Instruments, Winooski, VT, USA). […]

[13] = MV4-11, 24 h, about 1.5 × IC50, statistically significant

Row | Structure (SMILES) | IC50 [3] [µM] | IC50 [4] [µM] | IC50 [5] [µM] | IC50 [6] [µM] | SI [6] | IC50 [7] [µM] | SI [7] | IC50 [8] [µM] | SI [8] | IC50 [9] [µM] | IC50 [10] [µM] | number of cells in the G2/M phase (MV4-11 cells [11]; [13]) | further results
1 | CC[C@@]1(O)C(=O)OCc2c1cc1n(c2=O)Cc2cc3ccccc3nc2-1 [camptothecin, reference compound] | – | – | – | – | – | – | – | – | – | – | – | – | induction of apoptosis (MV4-11 cells [1]; MV4-11, 24 h): induced apoptosis; activity of caspase-3 in comparison to control cells [2]: 5 fold
2 | C#CCCC(=O)OC[C@]12CC[C@@H](C(=C)C)C1C1CCC3[C@@]4(C)CC[C@H](OC(=O)CC(C)(C)C(=O)O)C(C)(C)C4CC[C@@]3(C)[C@]1(C)CC2 (stereo partly drawn) [Compound 5b] | 4.76 ± 0.92 | 12.3 ± 2.92 | 9.06 ± 2.92 | 4.15 ± 0.92 | 8.15 | 16.1 ± 4.76 | 2.10 | 28.4 ± 3.23 | 1.19 | 21.1 ± 1.54 | 33.8 ± 3.38 | lowered | SI ([3]; IC50 MCF-10A / IC50 MV4-11): 7.10; SI ([4]; IC50 MCF-10A / IC50 MCF-7): 2.75; SI ([5]; IC50 MCF-10A / IC50 HCT116): 3.73; SI ([9]; IC50 MCF-10A / IC50 PC-3): 1.61; number of death cells (MV4-11 cells [11]; MV4-11, 72 h, about 1.5 × IC50): increased; number of cells in the G2/M and S phases (MV4-11 cells [11]; MV4-11, 72 h, about 1.5 × IC50, statistically significant): decreased; number of necrotic cells (MV4-11 cells [1]; MV4-11, 72 h): increased the number of necrotic cells; induction of apoptosis (MV4-11 cells [1]; MV4-11, 72 h, higher concentrations): induction of apoptosis was observed
3 | C=C(C)[C@@H]1CC[C@]2(CO)CC[C@]3(C)[C@H](CC[C@@H]4[C@@]5(C)CC[C@H](O)C(C)(C)[C@@H]5CC[C@]43C)[C@@H]12 [B, betulin, reference compound] | 32.8 ± 12.9 | 43.6 ± 15.8 | 37.7 ± 7.45 | 14 ± 1.13 | 7.03 | 58.5 ± 15.6 | 1.68 | 144 ± 22.1 | 0.68 | 51.5 ± 9.94 | 98.48 ± 0.9 | lowered | IC50 [12]: 14 to 144 µM; number of cells in the S and G0/G1 phases (MV4-11 cells [11]; MV4-11, 24 h, about 1.5 × IC50): lowered

From PMC11821258 (Molecules, 2025)
